Experimental data reported in patent US10723741B1, “DNA polymerase IIIC inhibitors and use thereof” (Acurx Pharmaceuticals, LLC, priority 2018, dated 2020).
≈ marks a conversion by molar mass, not a printed value. Where two headings read alike, the source gives them in different places.

Tests used:
Assay type in all cases: cell-based
[1] = system: Escherichia coli ATCC 25922; experiment: Broth microdilution MIC, E. coli ATCC 25922 (MHIIB w & w/o 4 mM EDTA); conditions: broth microdilution, 37° C., 20 hours; for MIC: Escherichia coli, ATCC25922, without EDTA, read-out: MIC E. coli ATCC 25922; for MIC E. coli ATCC 25922 + 4 mM EDTA: with 4 mM EDTA
Summary of the method: (§1)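 Two-fold dilutions from 64 to 0.0625 μg/ml final, 1% DMSO, were inoculated at ~5.0×10^5 cfu/ml in the strain's test medium and kept 20 h at 37 °C in ambient atmosphere. Colonies were grown on MHA, with S. pneumoniae on blood agar under 5% CO2.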

[2] = system: Staphylococcus aureus ATCC 29213 (MSSA); experiment: Broth microdilution MIC, S. aureus ATCC 29213 (MSSA); conditions: broth microdilution, 37° C., 20 hours, read-out: MIC S. aureus ATCC 29213 (MSSA)
Summary of the method: as §1

[3] = system: Enterococcus faecalis ATCC 29212; experiment: Broth microdilution MIC, E. faecalis ATCC 29212; conditions: ATCC29212, broth microdilution, 37° C., 20 hours, read-out: MIC E. faecalis ATCC 29212
Summary of the method: as §1

[4] = system: Bacillus subtilis ATCC 6633; experiment: Broth microdilution MIC, B. subtilis ATCC 6633; conditions: ATCC6633, broth microdilution, 37° C., 20 hours, read-out: MIC B. subtilis ATCC 6633
Summary of the method: as §1

[5] = system: Staphylococcus aureus NRS384 (MRSA); experiment: Broth microdilution MIC, S. aureus NRS384 (MRSA); conditions: Staphylococcus aureus, broth microdilution, 37° C., 20 hours
Summary of the method: as §1

[6] = system: Enterococcus faecium ATCC 700221 (VRE); experiment: Broth microdilution MIC, E. faecium ATCC 700221 (VRE); conditions: Enterococcus faecium, broth microdilution, 37° C., 20 hours
Summary of the method: as §1

[7] = system: Streptococcus pneumoniae ATCC 49619; experiment: Broth microdilution MIC, S. pneumoniae ATCC 49619; conditions: ATCC49619, broth microdilution, 37° C., 20 hours, read-out: MIC S. pneumoniae ATCC 49619
Summary of the method: as §1

[8] = MHIIB, read-out: MIC against S. aureus NRS 384 (MRSA)
[9] = read-out: MIC E. faecium ATCC 700221 (VRE)
[10] = MHIIB, read-out: MIC against E. faecium ATCC 700221 (VRE)

| MIC [1] [µg/mL] | MIC E. coli ATCC 25922 + 4 mM EDTA [1] [µg/mL] | MIC [2] [µg/mL] | MIC [3] [µg/mL] | MIC [4] [µg/mL] | MIC ([5]; read-out: MIC NRS 384 (MRSA)) [µg/mL] | MIC [5, 8] [µg/mL] | MIC [6, 9] [µg/mL] | MIC [6, 10] [µg/mL] | MIC [7] [µg/mL] | Compound |
| --- | --- | --- | --- | --- | --- | --- | --- | --- | --- | --- |
| > 64 | >64 | – | 64 | 16 | > 64 | – | 64 | – | 16 | Cl.Cl.O=c1[nH]c(NCc2ccc(Cl)c(Cl)c2)nc2cnn(CCOCCN3CCNCC3)c12 [Compound 167, 5-[(3,4-dichlorophenyl)methylamino]-1-[2-(2-piperazin-1-ylethoxy)ethyl]-6H-pyrazolo[4,3-d]pyrimidin-7-one] |
| > 64 | >64 | 32 | 16 | 2 | 32 | – | 8 | – | 4 | CN(C)CCOCCn1ncc2nc(NCc3ccc(Cl)c(Cl)c3)[nH]c(=O)c21.Cl [Compound 211, 5-((3,4-dichlorobenzyl)amino)-1-(2-(2-(dimethylamino)ethoxy)ethyl)-1H-pyrazolo[4,3-d]pyrimidin-7(6H)-one hydrochloride] |
| > 64 | >64 | 1 (≈ 2.59 µM) | > 64 | 1 (≈ 2.59 µM) | 1 (≈ 2.59 µM) | ≤ 1 | 1 (≈ 2.59 µM) | ≤ 1 | 8 (≈ 20.7 µM) | O=c1[nH]c(NCc2ccc(Cl)c(Cl)c2)nc2cnn(-c3ccccc3)c12 [Compound 212, 5-[(3,4-dichlorophenyl)methylamino]-1-phenyl-6H-pyrazolo[4,3-d]pyrimidin-7-one] |
| > 64 | >64 | 1 (≈ 2.86 µM) | 2 (≈ 5.71 µM) | 0.5 (≈ 1.43 µM) | 1 (≈ 2.86 µM) | ≤ 1 | 1 (≈ 2.86 µM) | ≤ 1 | 4 (≈ 11.4 µM) | O=c1[nH]c(NCc2ccc(Cl)c(Cl)c2)nc2cnn(C3CC3)c12 [Compound 213, 1-Cyclopropyl-5-((3,4-dichlorobenzyl)amino)-1H-pyrazolo[4,3-d]pyrimidin-7(6H)-one] |
| > 64 | >64 | 2 (≈ 5.29 µM) | 2 (≈ 5.29 µM) | 0.5 (≈ 1.32 µM) | 1 (≈ 2.64 µM) | ≤ 1 | 1 (≈ 2.64 µM) | ≤ 1 | 8 (≈ 21.1 µM) | O=c1[nH]c(NCc2ccc(Cl)c(Cl)c2)nc2cnn(C3CCCC3)c12 [Compound 214, 1-cyclopentyl-5-((3,4-dichlorobenzyl)amino)-1H-pyrazolo[4,3-d]pyrimidin-7(6H)-one] |
| > 64 | >64 | 1 (≈ 2.36 µM) | 2 (≈ 4.71 µM) | 0.5 (≈ 1.18 µM) | 1 (≈ 2.36 µM) | ≤ 1 | 1 (≈ 2.36 µM) | ≤ 1 | 2 (≈ 4.71 µM) | COC(=O)CCCCn1ncc2nc(NCc3ccc(Cl)c(Cl)c3)[nH]c(=O)c21 [Compound 218, methyl 5-[5-[(3,4-dichlorophenyl)methylamino]-7-oxo-6H-pyrazolo[4,3-d]pyrimidin-1-yl]pentanoate] |
| > 64 | 32 | 8 | 4 | 2 | 4 | – | 2 | – | 2 | Cl.O=c1[nH]c(NCc2ccc(Cl)c(Cl)c2)nc2cnn(C3CCN(C4CCOCC4)CC3)c12 [Compound 242, 5-((3,4-dichlorobenzyl)amino)-1-(1-(tetrahydro-2H-pyran-4-yl)piperidin-4-yl)-1H-pyrazolo[4,3-d]pyrimidin-7(6H)-one hydrochloride] |
| > 64 | >64 | > 64 | 64 (≈ 130 µM) | > 64 | > 64 | – | 32 (≈ 64.9 µM) | – | 32 (≈ 64.9 µM) | O=C(O)CCC(=O)N1CCC(n2ncc3nc(NCc4ccc(Cl)c(Cl)c4)[nH]c(=O)c32)CC1 [Compound 273, 4-(4-(5-((3,4-dichlorobenzyl)amino)-7-oxo-6,7-dihydro-1H-pyrazolo[4,3-d]pyrimidin-1-yl)piperidin-1-yl)-4-oxobutanoic Acid] |
| > 64 | >64 | > 64 | 64 (≈ 125 µM) | 16 (≈ 31.3 µM) | 64 (≈ 125 µM) | – | 32 (≈ 62.6 µM) | – | 8 (≈ 15.6 µM) | O=C([C@@H](O)[C@H](O)CO)N1CCC(n2ncc3nc(NCc4ccc(Cl)c(Cl)c4)[nH]c(=O)c32)CC1 [Compound 276, 5-((3,4-dichlorobenzyl)amino)-1-(1-((2S,3R)-2,3,4-trihydroxybutanoyl)piperidin-4-yl)-1H-pyrazolo[4,3-d]pyrimidin-7(6H)-one] |

The remaining lines, values behind:

| Compound | MIC [1] [µg/mL] | MIC E. coli ATCC 25922 + 4 mM EDTA [1] [µg/mL] | MIC [2] [µg/mL] | MIC [3] [µg/mL] | MIC [4] [µg/mL] | MIC ([5]; read-out: MIC NRS 384 (MRSA)) [µg/mL] | MIC [5, 8] [µg/mL] | MIC [6, 9] [µg/mL] | MIC [6, 10] [µg/mL] | MIC [7] [µg/mL] |
| --- | --- | --- | --- | --- | --- | --- | --- | --- | --- | --- |
| Cn1ncc2nc(NCc3ccc(Cl)c(Cl)c3)[nH]c(=O)c21 [Compound 2, 5-((3,4-Dichlorobenzyl)amino)-1-methyl-1H-pyrazolo[4,3-d]pyrimidin-7(6H)-one] | > 64 | >64 | 2 (≈ 6.17 µM) | 2 (≈ 6.17 µM) | 1 (≈ 3.08 µM) | 1 (≈ 3.08 µM) | ≤ 1 | 1 (≈ 3.08 µM) | ≤ 1 | 4 (≈ 12.3 µM) |
| Cc1nn(C)c2c(=O)[nH]c(NCc3ccc(Cl)c(Cl)c3)nc12 [Compound 44, 5-((3,4-dichlorobenzyl)amino)-1,3-dimethyl-1H-pyrazolo[4,3-d]pyrimidin-7(6H)-one] | > 64 | >64 | 2 (≈ 5.91 µM) | 4 (≈ 11.8 µM) | 2 (≈ 5.91 µM) | 2 (≈ 5.91 µM) | ≤ 1 | 4 (≈ 11.8 µM) | ≤ 1 | 4 (≈ 11.8 µM) |
| C=CCn1ncc2nc(NCc3ccc(Cl)c(Cl)c3)[nH]c(=O)c21 [Compound 56, 1-allyl-5-((3,4-dichlorobenzyl)amino)-1H-pyrazolo[4,3-d]pyrimidin-7(6H)-one] | > 64 | >64 | 1 (≈ 2.86 µM) | 2 (≈ 5.71 µM) | 0.25 (≈ 0.714 µM) | 0.5 (≈ 1.43 µM) | ≤ 1 | 0.5 (≈ 1.43 µM) | ≤ 1 | 2 (≈ 5.71 µM) |
| O=c1[nH]c(NCc2ccc(Cl)c(Cl)c2)nc2cn[nH]c12 [Compound 77, 5-((3,4-dichlorobenzyl)amino)-1H-pyrazolo[4,3-d]pyrimidin-7(6H)-one] | > 64 | >64 | 8 (≈ 25.8 µM) | 8 (≈ 25.8 µM) | 4 (≈ 12.9 µM) | 8 (≈ 25.8 µM) | – | 4 (≈ 12.9 µM) | – | 4 (≈ 12.9 µM) |
| COCCn1ncc2nc(NCc3ccc(Cl)c(Cl)c3)[nH]c(=O)c21 [Compound 126, 5-((3,4-dichlorobenzyl)amino)-1-(2-methoxyethyl)-1H-pyrazolo[4,3-d]pyrimidin-7(6H)-one] | > 64 | >64 | 2 (≈ 5.43 µM) | 4 (≈ 10.9 µM) | 1 (≈ 2.72 µM) | 2 (≈ 5.43 µM) | – | 2 (≈ 5.43 µM) | – | 2 (≈ 5.43 µM) |
| Cl.O=c1[nH]c(NCc2ccc(Cl)c(Cl)c2)nc2cnn(CC3CNCCO3)c12 (stereo not shown) [Compound 149, 5-((3,4-dichlorobenzyl)amino)-1-(morpholin-2-ylmethyl)-1H-pyrazolo[4,3-d]pyrimidin-7(6H)-one hydrochloride] | > 64 | 64 | 16 | 16 | 2 | 32 | – | 8 | – | 4 |
